Consider 1 molecule from US11369611B2, “Therapeutic compounds and uses thereof” (Kala Pharmaceuticals, Inc., priority 2013, dated 2022).

Data set [1] in a line: Particle size of compounds milled with PLURONIC F127 as MPP (dynamic light scattering). As to conditions: formulated as MPP, milled with PLURONIC F127, DPBS buffered. Format: physicochemical. From the text:
The compounds of the present invention synthesized in accordance with the preceding Examples were formulated as mucus penetrating particles (MPP). Specifically, Compound 4 of Example 1, Compound 9 of Example 2, and Compound 13 of Example 3 were each milled in the presence of PLURONIC F127 (F127) to determine whether F127 1) aids particle size reduction to several hundreds of nanometers and 2) physically (non-covalently) coats the surface of generated nanoparticles with a mucoinert coating that would minimize particle interactions with mucus constituents and prevent mucus adhesion.
A milling procedure was employed in which an aqueous dispersion containing coarse drug particles and PLURONIC F127 (F127) was milled with grinding medium until particle size was reduced below 400 nm as measured by dynamic light scattering. Table 4 lists the size of particles and polydispersity index (a measure of the width of the particle size distribution) generated using this technique. In this example suspensions were buffered using DPBS (Dulbecco's Phosphate-Buffered Saline) which yields a suspension that is both isotonic and has a physiologically relevant pH.

A short description of data set [2]: Draize ocular irritation assessment. As to conditions: MPP 0.5%, 50 μL topical BID 5 days, Dutch-belted rabbits. In kind it is in vivo. From the text: Dutch-belted rabbits were used in these studies.

Consider `COc1cc2c(Oc3ccc4[nH]c(C)cc4c3F)ncnc2cc1OCCCN1CCC2(CC1)COC2` [Compound 4, 7-(3-(4-(4-fluoro-2-methyl-1H-indol-5-yloxy)-6-methoxyquinazolin-7-yloxy)propyl)-2-oxa-7-azaspiro[3.5]nonane], for which the “Particle Size” value in data set [1] is listed as 270 nm. For the same molecule, in data set [2], the “Draize-Ocular Irritation” value was “no irritation was seen”.
